Test results reported in patent EP0326331B1, “Substituted quinolines and cinnolines” (Dow AgroSciences LLC, priority 1988, dated 1989).

How the values were obtained:
Assay type in all cases: in vivo
[1] = test system: Septoria tritici (leaf blotch); experiment: Test 1 greenhouse foliar spray screen, leaf blotch on wheat; conditions: Zymoseptoria tritici; Test 1, foliar spray on wheat; disease control rating at 400 ppm / 100 ppm; read-out: LEAF BLOT
[2] = test system: Cercospora beticola (leaf spot); experiment: Test 1 greenhouse foliar spray screen, leaf spot on sugar beet; conditions: Cercospora beticola; Test 1, foliar spray on sugar beet; disease control rating at 400 ppm / 100 ppm
[3] = test system: Botrytis cinerea (gray mold); experiment: Test 1 greenhouse foliar spray screen, gray mold on grape berries; conditions: Botrytis cinerea, foliar; Test 1, spray on grape berries; disease control rating at 400 ppm / 100 ppm
[4] = test system: Pseudoperonospora cubensis (downy mildew); experiment: Test 1 greenhouse foliar spray screen, downy mildew on squash
[5] = test system: Puccinia recondita tritici (leaf rust); experiment: Test 1 greenhouse foliar spray screen, leaf rust on wheat; conditions: Puccinia recondita, foliar, Test 1, foliar spray on wheat; disease control rating at 400 ppm / 100 ppm
corn rootworm = experiment: Mite/insect screen, CRW; conditions: percent mortality, read-out: CRW RESULTS %
Summary of the method: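 Following dissolution in equal parts acetone and alcohol with 23 g/L and 13 g/L emulsifier blends and dilution with water, test solutions were scored for percent mortality at the end of standard exposures.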

[6] = test system: Pyricularia oryzae (rice blast); experiment: whole plant or invertebrate; conditions: Pyricularia oryzae, foliar, read-out: RICE BLAST, Test 1, foliar spray on rice; disease control rating at 400 ppm / 100 ppm
[7] = test system: Erysiphe graminis tritici (powdery mildew); experiment: Test 1 greenhouse foliar spray screen, powdery mildew on wheat; conditions: Blumeria graminis, foliar, Test 1, foliar spray on wheat; disease control rating at 400 ppm / 100 ppm; read-out: POWD MDEW
[8] = test system: melon aphids (Aphis gossypii Glover); experiment: Mite/insect screen, MA; conditions: Aphis gossypii, foliar, percent mortality, foliar spray on squash, read-out: MA RESULTS %
Summary of the method: (§1)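 Foliar spray to runoff (10 psi), 1 h drying; aqueous dilutions from acetone/alcohol emulsifier stock. Mortality (%) after standard exposure.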

twospotted spider mite = experiment: Field trials against pest species; conditions: field trial, host broccoli
Method: (§2) 4-[2-[4-(t-Butyl)phenyl]ethoxy]-8-fluoroquinoline (Example 221) was evaluated in a number of field trials. […]

apple aphid = experiment: Field trials against pest species; conditions: field trial, host apples
Method: as §2

greenhouse thrip = experiment: Field trials against pest species; conditions: field trial, host azaleas
Method: as §2

European red mite = experiment: Field trials against pest species; conditions: field trial, host apples
Method: as §2

mites = experiment: Field trials against pest species; conditions: field trial, host apples
Method: as §2

yellow hickory aphid = experiment: Field trials against pest species; conditions: field trial, host pecan nut
Method: as §2

tarnished plant bug = experiment: Field trials against pest species; conditions: field trial, host alfalfa (Lucerne)
Method: as §2

apple rust mite = experiment: Field trials against pest species; conditions: field trial, host apples
Method: as §2

wheat aphid = experiment: Field trials against pest species; conditions: field trial, host wheat
Method: as §2

pea aphid = experiment: Field trials against pest species; conditions: field trial
Method: as §2

potato leaf hopper = experiment: Field trials against pest species; conditions: field trial, host alfalfa (Lucerne)
Method: as §2

green peach aphid = experiment: Field trials against pest species; conditions: field trial
Method: as §2

white apple leafhopper = experiment: Field trials against pest species; conditions: field trial, host apples
Method: as §2

grape leafhopper = experiment: Field trials against pest species; conditions: field trial, host grape (European)
Method: as §2

Dawson-hop aphid = experiment: Field trials against pest species; conditions: field trial, host hops
Method: as §2

bean aphid = experiment: Field trials against pest species; conditions: field trial, host bean, faba broad
Method: as §2

rosy apple aphid = experiment: Field trials against pest species; conditions: field trial, host apples
Method: as §2

thrip = experiment: Field trials against pest species; conditions: field trial, host privet
Method: as §2

cotton aphid = experiment: Field trials against pest species; conditions: field trial, host cotton
Method: as §2

green cloverworm = experiment: Field trials against pest species; conditions: field trial, host alfalfa (Lucerne)
Method: as §2

grape thrip = experiment: Field trials against pest species; conditions: field trial, host grape (European)
Method: as §2

Erysiphe sp. = experiment: Field tests against plant pathogens; conditions: field test, crop sugar beet
From the text: Selected compounds were field tested against a variety of plant pathogens. […]

[9] = test system: Venturia inaequalis (apple scab); experiment: Test 1 greenhouse foliar spray screen, apple scab on apple seedling; conditions: Venturia inaequalis; Test 1, foliar spray on apple seedling; disease control rating at 400 ppm / 100 ppm; read-out: APPL SCAB
[10] = test system: southern armyworm (Spodopetra eridania Cramer); experiment: Mite/insect screen, SAW; conditions: Spodoptera eridania, foliar, percent mortality, foliar spray on squash, read-out: SAW RESULTS %
Summary of the method: as §1

[11] = test system: Twospotted spider mites (Tetranychus urticae Koch); experiment: Mite/insect screen, SM
Summary of the method: as §1

[12] = summary statement in the description

`CC(C)(C)c1ccc(CCOc2ccnc3c(F)cccc23)cc1` [Example 221, 4-[2-[4-(t-butyl)phenyl]ethoxy]-8-fluoroquinoline] was tested, and the pest or weed control at 400 ppm [1] was 90 to 100%, the pest or weed control at 400 ppm [2] was 90 to 100% and the pest or weed control at 400 ppm [3] was 0 to 19%. The pest or weed control at 400 ppm ([4]; Pseudoperonospora cubensis, foliar, Test 1, foliar spray on squash, disease control rating at 400 ppm / 100 ppm, read-out: DOWN MDEW) was 90 to 100%, the “activity against downy mildew” value [4, 12] was “particularly excellent activity” and the pest or weed control at 400 ppm [5] was 90 to 100%. The mortality at 12 ppm (corn rootworm; CRW rate 12.00 ppm) was 40%, the mortality at 24 ppm (corn rootworm; CRW rate 24.00 ppm) was 0% and the pest or weed control at 400 ppm [6] was 0 to 19%. The pest or weed control at 400 ppm [7] was 20 to 89%, the mortality at 200 ppm ([8]; rate 200 ppm) was 90% and the mortality at 400 ppm ([8]; rate 400 ppm) was 80%. The “pest species against which it showed activity” value (from here on “pest species”) (twospotted spider mite) was “twospotted spider mite”, the “pest species” value (apple aphid) was “apple aphid” and the “pest species” value (greenhouse thrip) was “greenhouse thrip”. The “pest species” value (European red mite) was “European red mite”, the “pest species” value (mites) was “mites” and the “pest species” value (yellow hickory aphid) was “yellow hickory aphid”. For the same compound, the “pest species” value (tarnished plant bug) was “tarnished plant bug”, the “pest species” value (apple rust mite) was “apple rust mite” and the “pest species” value (wheat aphid) was “wheat aphid”. For the same compound, the “pest species” value (pea aphid; host alfalfa (Lucerne)) was “pea aphid”, the “pest species” value (pea aphid; host pea, garden (English)) was “pea aphid” and the “pest species” value (potato leaf hopper) was “potato leaf hopper”. The “pest species” value (green peach aphid; host apples) was “green peach aphid”, the “pest species” value (green peach aphid; host sugar beet) was “green peach aphid” and the “pest species” value (white apple leafhopper) was “white apple leafhopper”. The “pest species” value (grape leafhopper) was “grape leafhopper”, the “pest species” value (Dawson-hop aphid) was “Dawson-hop aphid” and the “pest species” value (bean aphid) was “bean aphid”. For the same compound, the “pest species” value (rosy apple aphid) was “rosy apple aphid”, the “pest species” value (thrip) was “thrip” and the “pest species” value (cotton aphid) was “cotton aphid”. The “pest species” value (green cloverworm) was “green cloverworm”, the “pest species” value (grape thrip) was “grape thrip” and the “pathogens against which compounds of the invention showed activity” value (Erysiphe sp.) was “Erysiphe sp”. For the same compound, the pest or weed control at 400 ppm [9] was 20 to 89%, the mortality at 200 ppm ([10]; rate 200 ppm) was 0% and the mortality at 400 ppm ([10]; rate 400 ppm) was 0%. The mortality at 200 ppm ([11]; Tetranychus urticae, foliar, percent mortality, rate 200 ppm, foliar spray on squash, read-out: SM RESULTS %) was 90%, the mortality at 400 ppm ([11]; Tetranychus urticae, foliar, percent mortality, rate 400 ppm, foliar spray on squash, read-out: SM RESULTS %) was 90% and the activity as miticides [11, 12] was “particularly excellent activity”.
